This passage reports TGI results from PubChem BioAssay (NCI).

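Method: 48-hour compound exposure of cells in 96-well plates, five concentrations, linear interpolation of endpoints. TGI: concentration producing complete growth inhibition.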 A value given as a limit tells only on which side of the number the result lay.

Among the test systems are OVCAR-3 ovarian; NCI-H522 lung; CCRF-CEM leukemia; HCC-2998 colon; HCT-116 colon; LOX IMVI melanoma; HT29 colon; TK-10 renal; MOLT-4 leukemia; MALME-3M melanoma; HOP-92 NSCLC; HL-60(TB) leukemia; CAKI-1 renal; NCI-H226 lung; MCF7 breast; DU-145 prostate; PC-3 prostate; HS 578T breast; NCI/ADR-RES ovarian.
Holding throughout (experiment): DTP human tumour cell line panel, 48 h

As a reminder, the TGI is the concentration at which net growth stops. Regarding `CCCc1cc(OC(=O)c2c(O)cc(OC)cc2CCC)cc(O)c1C(=O)O`, the TGI is 61.2 µM in the experiment on OVCAR-3 ovarian; 43.9 µM with NCI-H522 lung; 95.4 µM in the experiment with CCRF-CEM leukemia; 66.2 µM in the experiment on HCC-2998 colon; 32.2 µM in the experiment with HCT-116 colon; 61.7 µM in the experiment with LOX IMVI melanoma. For the same molecule, the TGI is over 100 µM with HT29 colon; over 100 µM in the experiment with TK-10 renal; 84.2 µM with MOLT-4 leukemia; 42.3 µM with MALME-3M melanoma; 39 µM in the experiment on HOP-92 NSCLC; 52.7 µM in the experiment on HL-60(TB) leukemia.
In the case of `COc1ccc(C2Cc3cc(OC)c(OC)c(OC)c3C2)cc1` (stereo not drawn), the TGI with OVCAR-3 ovarian, in the experiment on CCRF-CEM leukemia, in the experiment on HCC-2998 colon, in the experiment on HCT-116 colon, in the experiment with CAKI-1 renal and in the experiment on LOX IMVI melanoma was over 100 µM throughout. The TGI was over 100 µM in the experiment with NCI-H226 lung; 79.6 µM in the experiment on HT29 colon; over 100 µM in the experiment on TK-10 renal; 61.6 µM with MOLT-4 leukemia; over 100 µM with MALME-3M melanoma.
Regarding `O=[N+]([O-])c1cccc(Nc2nc(Cl)nc(Cl)n2)c1`, the TGI with OVCAR-3 ovarian, in the experiment with NCI-H522 lung, with CCRF-CEM leukemia, in the experiment with HCC-2998 colon, in the experiment on HCT-116 colon and in the experiment on CAKI-1 renal was over 100 µM throughout. Also, the TGI in the experiment with LOX IMVI melanoma, in the experiment on NCI-H226 lung, in the experiment with HT29 colon, in the experiment with MOLT-4 leukemia and in the experiment with MALME-3M melanoma was over 100 µM in each case.
Turning to `CCSC1=N/C(=C\c2ccco2)C(=O)N1`, the TGI with OVCAR-3 ovarian, with NCI-H522 lung, in the experiment with CCRF-CEM leukemia, in the experiment with MCF7 breast, with DU-145 prostate and in the experiment on PC-3 prostate was over 100 µM each time. Also, the TGI with HS 578T breast, in the experiment on HCT-116 colon, with NCI/ADR-RES ovarian, with LOX IMVI melanoma, with NCI-H226 lung and in the experiment on HT29 colon was over 100 µM in each case. Besides, the TGI with TK-10 renal, with MOLT-4 leukemia, in the experiment with MALME-3M melanoma and in the experiment on HOP-92 NSCLC was over 100 µM each time.
Regarding `CCOC(=O)C1=C(OC(OCC)C(CC)[Se]c2ccccc2)CCC1` (stereo not drawn), the TGI with OVCAR-3 ovarian is 69.3 µM; in the experiment on NCI-H522 lung, 29.1 µM; in the experiment with CCRF-CEM leukemia, 36.2 µM; in the experiment on HCC-2998 colon it was over 100 µM; in the experiment with HCT-116 colon, over 100 µM; in the experiment on CAKI-1 renal, over 100 µM. In addition, the TGI in the experiment with LOX IMVI melanoma is 20.5 µM; in the experiment with NCI-H226 lung, 53.5 µM; in the experiment on HT29 colon, 58.1 µM; in the experiment on TK-10 renal, over 100 µM; in the experiment on MOLT-4 leukemia, 73.5 µM; in the experiment on MALME-3M melanoma, 56.7 µM. For the same molecule, the TGI in the experiment on HOP-92 NSCLC turned out to be 45.8 µM; in the experiment on HL-60(TB) leukemia, 39.1 µM.
For `O=C(NCCN1CCCCC1)c1cccc(I)c1`, the concentration for total growth inhibition (TGI) with OVCAR-3 ovarian, in the experiment on CCRF-CEM leukemia, in the experiment with MCF7 breast, in the experiment with HCC-2998 colon, in the experiment on PC-3 prostate and in the experiment with HS 578T breast was over 100 µM in each case. Further, the TGI in the experiment on CAKI-1 renal, in the experiment with NCI/ADR-RES ovarian, in the experiment with LOX IMVI melanoma, in the experiment on NCI-H226 lung, with HT29 colon and in the experiment with TK-10 renal was over 100 µM each time. Besides, the TGI in the experiment with MOLT-4 leukemia, in the experiment with HOP-92 NSCLC and in the experiment with HL-60(TB) leukemia was over 100 µM in each case.
Take `COC(=O)/C=C(\C)CCC1SC1(C)C` (stereo not drawn): the TGI with NCI-H522 lung, with CCRF-CEM leukemia, in the experiment on HCC-2998 colon, in the experiment on HCT-116 colon, in the experiment with CAKI-1 renal and in the experiment with LOX IMVI melanoma was over 100 µM each time. In addition, the TGI in the experiment with NCI-H226 lung, with HT29 colon, in the experiment on TK-10 renal, in the experiment with MOLT-4 leukemia, with MALME-3M melanoma and with HL-60(TB) leukemia was over 100 µM in each case.
Regarding `Cc1ccc(-c2cc(-c3ccccc3)c(C#N)c(=O)[nH]2)cc1`, the TGI in the experiment with OVCAR-3 ovarian, in the experiment on NCI-H522 lung, in the experiment on CCRF-CEM leukemia, in the experiment on HCC-2998 colon, in the experiment with HCT-116 colon and in the experiment on LOX IMVI melanoma was over 100 µM each time. Also, the TGI with NCI-H226 lung, in the experiment with HT29 colon, with TK-10 renal, in the experiment on MOLT-4 leukemia, in the experiment with MALME-3M melanoma and with HOP-92 NSCLC was over 100 µM throughout. In the experiment with HL-60(TB) leukemia, the TGI is over 100 µM.
Consider `CCCNCCCCC(NC(C)=O)C(=O)NCc1ccccc1` (stereo not drawn), for which the TGI with OVCAR-3 ovarian, with NCI-H522 lung, with CCRF-CEM leukemia, in the experiment with HCC-2998 colon, in the experiment on HCT-116 colon and with CAKI-1 renal was over 100 µM each time. Besides, the TGI in the experiment on LOX IMVI melanoma, with NCI-H226 lung, with HT29 colon, with TK-10 renal, in the experiment with MOLT-4 leukemia and in the experiment with MALME-3M melanoma was over 100 µM in each case. The same molecule yielded a total growth inhibition concentration (TGI) with HOP-92 NSCLC of over 100 µM.
For the molecule `CCCCOC/N=C(/N)NC#N`, the TGI in the experiment on OVCAR-3 ovarian is over 100 µM; in the experiment with NCI-H522 lung it was over 100 µM; in the experiment on HCC-2998 colon, over 100 µM; with HCT-116 colon, over 100 µM; with CAKI-1 renal, over 100 µM; with LOX IMVI melanoma, 90.1 µM. Also, the TGI in the experiment with NCI-H226 lung, in the experiment with HT29 colon, in the experiment with TK-10 renal, in the experiment on MOLT-4 leukemia, in the experiment with MALME-3M melanoma and in the experiment with HOP-92 NSCLC was over 100 µM in each case. The same molecule came in with a TGI with HL-60(TB) leukemia of over 100 µM.
As for `CN1CCc2ccccc2C(C(=O)c2ccc3c(c2)OCO3)C1=O` (stereo not drawn), the TGI in the experiment with OVCAR-3 ovarian, in the experiment on NCI-H522 lung, in the experiment with CCRF-CEM leukemia, in the experiment on HCT-116 colon, in the experiment with CAKI-1 renal and with LOX IMVI melanoma was over 100 µM each time. The TGI with NCI-H226 lung, with HT29 colon, with TK-10 renal, in the experiment with MOLT-4 leukemia, in the experiment with MALME-3M melanoma and with HOP-92 NSCLC was over 100 µM throughout. The same molecule returned a total growth inhibition concentration (TGI) in the experiment with HL-60(TB) leukemia of over 100 µM.
`COc1cc([C@@H]2c3cc4c(cc3[C@@H](NCc3cccc(C#N)c3)C3COC(=O)[C@@H]32)OCO4)cc(OC)c1O` (stereo partly drawn): the total growth inhibition concentration (TGI) is 8.47 µM in the experiment with OVCAR-3 ovarian; 3.56 µM in the experiment with NCI-H522 lung; over 100 µM in the experiment on CCRF-CEM leukemia; 4.51 µM in the experiment on HCC-2998 colon; 21.4 µM with HCT-116 colon; 20.8 µM with CAKI-1 renal. For the same molecule, the TGI in the experiment with LOX IMVI melanoma came to 8.36 µM; in the experiment on NCI-H226 lung, 2.4 µM; with HT29 colon, 5.51 µM; in the experiment with TK-10 renal, 6.84 µM; in the experiment with MOLT-4 leukemia it was 1.43 µM; with MALME-3M melanoma, 9.58 µM. Moreover, the results for the TGI in the experiment on HOP-92 NSCLC and with HL-60(TB) leukemia were 9.83 µM and 1.51 µM, respectively.
`COc1ccc2[nH]c3c(c2c1)[C@H]1CCC(C(C)(C)C)C[C@H]1[C@H]1C(=O)N(c2ccccc2)C(=O)[C@@H]31` (stereo partly drawn): the TGI with OVCAR-3 ovarian was over 58.9 µM; with NCI-H522 lung, over 49.5 µM; with CCRF-CEM leukemia, over 52 µM; in the experiment on HCC-2998 colon, over 100 µM; with HCT-116 colon, over 100 µM; with CAKI-1 renal it was over 36.6 µM. The TGI in the experiment with LOX IMVI melanoma is over 100 µM; with NCI-H226 lung, 81.9 µM; with HT29 colon, over 100 µM; in the experiment on TK-10 renal, over 74.1 µM; with MOLT-4 leukemia, over 71.2 µM; in the experiment on MALME-3M melanoma, 40.4 µM. Moreover, the TGI in the experiment on HOP-92 NSCLC is 21 µM; in the experiment with HL-60(TB) leukemia, over 100 µM.
As for `CCCCCCCCC(O)c1ccc(/C=C\C(O)CCCC(=O)O)s1` (stereo not drawn), the TGI in the experiment with OVCAR-3 ovarian, with NCI-H522 lung, in the experiment with CCRF-CEM leukemia, with HCC-2998 colon, in the experiment on HCT-116 colon and in the experiment on LOX IMVI melanoma was over 100 µM in each case. For the same molecule, the TGI with NCI-H226 lung, with HT29 colon, in the experiment on TK-10 renal, in the experiment on MOLT-4 leukemia, with MALME-3M melanoma and in the experiment on HOP-92 NSCLC was over 100 µM in each case. This molecule showed a TGI with HL-60(TB) leukemia of over 100 µM.
As for `Cc1sc2nc3n(c(=O)c2c1C)N=CN(c1ccc(Cl)cc1)C3`, the TGI in the experiment on OVCAR-3 ovarian, in the experiment on NCI-H522 lung, in the experiment on CCRF-CEM leukemia, with HCC-2998 colon, in the experiment with DU-145 prostate and in the experiment on PC-3 prostate was over 100 µM in each case. Moreover, the TGI in the experiment with HCT-116 colon, in the experiment on CAKI-1 renal, with NCI/ADR-RES ovarian, with LOX IMVI melanoma, with NCI-H226 lung and in the experiment on HT29 colon was over 100 µM throughout. The TGI with TK-10 renal, in the experiment with MOLT-4 leukemia, in the experiment on MALME-3M melanoma and in the experiment on HOP-92 NSCLC was over 100 µM in each case.
Take `CCOC(=O)CCC(NC(=O)c1ccc(NC(OC)c2nc3cc(C(F)(F)F)ccc3nc2-c2ccccc2)cc1)C(=O)OCC` (stereo not drawn): the TGI with OVCAR-3 ovarian is 35.8 µM; in the experiment with NCI-H522 lung, 25.6 µM; in the experiment on CCRF-CEM leukemia it was over 21.7 µM; in the experiment with HCC-2998 colon, 30 µM; in the experiment on HCT-116 colon it was 9.35 µM; with CAKI-1 renal, 31.1 µM. The TGI is 23.4 µM with LOX IMVI melanoma; 35 µM with NCI-H226 lung; 22.1 µM in the experiment on HT29 colon; 38.4 µM with TK-10 renal; over 24.1 µM with MOLT-4 leukemia; 31.3 µM with MALME-3M melanoma. In the experiment on HOP-92 NSCLC, this molecule came in with a TGI of 30.3 µM.
